In patent US20080051417A1, “Uses of selective cyclooxygenase-1 inhibitors” (priority 2006, published 2008):
Read-outs that look alike come from different tables or passages of the source.

Assays:
15-epi-LPXA4 [1] = assay: Myocardial 15-epi-LPXA4 levels (ELISA) in treated rats; format: in vivo, Sprague-Dawley rats; settings: for effect on pioglitazone+atorvastatin induction of myocardial 15-epi-LPXA4: pioglitazone+atorvastatin pretreated rats; for effect on myocardial 15-epi-LPXA4 levels: 8 h before harvest
Experimental: (§1) Rats received the following treatment (4 rats in each group): 1) i.v. saline and oral water; 2) i.v. saline and oral aspirin 10 mg/kg; 3) i.v. saline and oral aspirin 50 mg/kg; 4) i.v. LPS and oral water; 5) i.v. LPS and oral aspirin 10 mg/kg; 6) i.v. LPS and oral aspirin 50 mg/kg; 7) i.v. LPS and oral aspirin 200 mg/kg; 8) oral pioglitazone (10 mg/kg/d) and atorvastatin (10 mg/kg/d); 9) oral pioglitazone+atorvastatin and aspirin 10 mg/kg; 10) oral pioglitazone+atorvastatin and aspirin 50 mg/kg; 11) oral pioglitazone+atorvastatin and aspirin 50 mg/kg and i.v. 1400 W, a specific iNOS inhibitor; or 12) oral pioglitazone+atorvastatin, oral water, and i.v. 1400 W, a specific iNOS inhibitor. LPS (10 mg/kg) was dissolved in 1 ml of saline and was administered intravenously 8 hours before harvesting the hearts. Aspirin was dissolved in water and administered by oral gavage 8 hours before harvesting the hearts. Atorvastatin and pioglitazone were administered by oral gavage once daily for 3 days; last dose was administered 16 hours before harvesting the hearts. 1400 W (1 mg/kg) was administered i.v. 15 minutes before harvesting the hearts. All hearts were analyzed for myocardial 15-epi-LPXA4, lipoxin A4, 6-keto-PGF1α (the stable metabolite of PGI2) and PGE2 levels.
(§2) The hearts were rapidly explanted, rinsed in cold PBS (pH 7.4), containing 0.16 mg/ml heparin to remove red blood cells and clots, frozen in liquid nitrogen and stored at −70° C. For 15-epi-LPXA4 and lipoxin A4 determination, myocardial samples from the anterior left ventricular wall were homogenized in ethanol (5 ml/g) and centrifuged at 10,000 g X15 min at 4° C. The supernatant was diluted with water and acidified to pH 3.5 with 1N HCl. The sample was loaded into C-18 Sep-Pak light column (Waters Corporation, Milford, Mass.) and washed with 1 ml of water followed by 1 ml of petroleum ether. The sample was eluted with 2 ml of methyl formate. The methyl formate was evaporated with N2 and the residue was dissolved in extraction buffer. The manufacturer instruction of the ELISA Kits was followed. For myocardial 6-keto-PGF1α and PGE2 levels myocardial samples were homogenized in RIPA lysis buffer with 10% proteinase inhibitor (Sigma) and centrifuged. The supernatants were collected and stored on ice. Measurement of 6-keto-PGF1α (the stable hydrolysis product of PGI2) and PGE2 were performed as instructed by the manufacturer.

[2] = tested on: 6-keto-PGF1α (the stable metabolite of PGI2); assay: Myocardial 6-keto-PGF1α levels (ELISA) in treated rats; format: in vivo, Sprague-Dawley rats; settings: for effect on pioglitazone+atorvastatin increase of myocardial 6-keto-PGF1α: pioglitazone+atorvastatin pretreated rats
Experimental: as §1, §2

COX2 [3] = settings: intravenous 1400 W, same dose as herein; 3-day pretreatment with atorvastatin 10 mg/kg/d; cited from earlier work
lipoxin A4 = assay: Myocardial lipoxin A4 levels (ELISA) in treated rats; format: in vivo, Sprague-Dawley rats; settings: for effect on pioglitazone+atorvastatin effect on myocardial lipoxin A4: pioglitazone+atorvastatin pretreated rats
Experimental: as §1, §2

PGE2 = assay: Myocardial PGE2 levels (ELISA) in treated rats; format: in vivo, Sprague-Dawley rats; settings: for effect on pioglitazone+atorvastatin increase of myocardial PGE2: pioglitazone+atorvastatin pretreated rats; for myocardial PGE2 levels: mean ±SEM
Experimental: as §1, §2

[4] = Infarct size after 30 minute coronary artery occlusion; format: in vivo; settings: aspirin 20 mg/kg i.v. at end of 30 minute coronary artery occlusion; 3-day atorvastatin pretreatment
15-epi-LXA4 = settings: normal human volunteers, cited from earlier work
15-epi-LPXA4 [5] = settings: cited from earlier work; for effect on pioglitazone+atorvastatin effect on myocardial 15-epi-LPXA4 levels: rats treated with pioglitazone+atorvastatin
COX2 [6] = assay: Biotin switch assay and COX2 immunoblot of myocardial samples; format: in vivo, rats; settings: compared with the pioglitazone+atorvastatin group
Experimental: S-nitrosylation of COX2 was determined by the biotin switch method as previously described (Atar et al., 2006). Briefly, myocardial samples from the left ventricular wall of rats treated with lipopolysaccharide (group 4) and pioglitazone+atorvastain (group 8) were homogenized in HEN buffer (25 mM HEPES (pH 7.7)-0.1 mM EDTA-0.01 mM necuproine). The supernatant containing membrane fragments and the cytosolic protein were recovered. The samples were incubated for 30 mins at 4° C. with blocking solution containing HEN buffer, 0.1% SDS and 20 mM N-ethylmaleimide (NEM) to block free thiols.
Lysates were centrifuged at 16,000×g for 10 min at 4° C. Cold acetone was added to precipitate the proteins. The pellets were resuspended in HEN buffer with 1% SDS, with 20 mM sodium ascorbate added to decompose the SNO bonds. The resulting free thiols in the sample were reacted with 0.05 mM biotinylating agent, biocytin (MPB) for 30 mins at room temperature. The excess MPB was removed by additional protein precipitation in cold acetone. COX2 was immunoprecipitated with anti-COX2 polyclonal antibody. […] The biotinylated COX2 protein was detected with horseradish peroxidase-linked streptavidin. […] The signal densities of the biotinylated COX2 and total COX2 were quantified by an image-scanning densitometer and the ratio of the densities was calculated for each animal.

## CC(=N)NCc1cccc(CN)c1 [1400 W]
15-epi-LPXA4 [1]; 1400 W 1 mg/kg i.v. alone
  effect on pioglitazone+atorvastatin induction of myocardial 15-epi-LPXA4: partially blocked
[2]; 1400 W
  effect on pioglitazone+atorvastatin increase of myocardial 6-keto-PGF1α: attenuated
COX2 [3]
  effect on augmentation of COX2 activity by atorvastatin: blocked
Lipoxin A4; 1400 W alone
  effect on pioglitazone+atorvastatin effect on myocardial lipoxin A4: not attenuated
PGE2; 1400 W
  effect on pioglitazone+atorvastatin increase of myocardial PGE2: completely blocked

## CC(=O)Oc1ccccc1C(=O)O [Aspirin]
[4]
  effect on infarct size limiting effect of atorvastatin: completely abrogated
15-epi-LXA4; 650 mg/d
  effect on 15-epi-LXA4: did not increase
15-epi-LXA4
  blood levels of 15ELX at 81 mg/d compared with 325 mg/d: greater
15-epi-LPXA4 [1]; aspirin alone, oral 10 mg/kg
  effect on myocardial 15-epi-LPXA4 levels: no effect
15-epi-LPXA4 [1]; aspirin alone, oral 50 mg/kg
  effect on myocardial 15-epi-LPXA4 levels: no effect
15-epi-LPXA4 [1]; i.v. LPS + oral aspirin 10 mg/kg, p=0.08 versus LPS alone
  effect on LPS induction of myocardial 15-epi-LPXA4: did not significantly alter
15-epi-LPXA4 [1]; i.v. LPS + oral aspirin 50 mg/kg, p<0.001 versus LPS alone
  effect on LPS induction of myocardial 15-epi-LPXA4: augmented
15-epi-LPXA4 [1]; i.v. LPS + oral aspirin 200 mg/kg, p<0.001 versus LPS alone
  effect on LPS induction of myocardial 15-epi-LPXA4: augmented
15-epi-LPXA4 [1]; aspirin 10 mg/kg
  effect on pioglitazone+atorvastatin induction of myocardial 15-epi-LPXA4: attenuated
15-epi-LPXA4 [1]; aspirin 50 mg/kg
  effect on pioglitazone+atorvastatin induction of myocardial 15-epi-LPXA4: completely blocked
[2]; LPS + aspirin 10 mg/kg, p<0.001 versus LPS alone, mean ±SEM
  myocardial 6-keto-PGF1α levels: 76.70 ± 0.25 pg/mg
[2]; LPS + aspirin 50 mg/kg, p<0.001 versus LPS alone, mean ±SEM
  myocardial 6-keto-PGF1α levels: 27.66 ± 0.23 pg/mg
[2]; LPS + aspirin 200 mg/kg, p<0.001 versus LPS alone, mean ±SEM
  myocardial 6-keto-PGF1α levels: 25.39 ± 0.22 pg/mg
[2]; aspirin alone 10 mg/kg, p=0.48 versus control
  myocardial 6-keto-PGF1α levels: 22.35 pg/mg
[2]; aspirin alone 50 mg/kg, p=0.001 versus control, mean ±SEM
  myocardial 6-keto-PGF1α levels: 20.97 ± 0.51 pg/mg
[2]; aspirin 10 mg/kg
  effect on pioglitazone+atorvastatin increase of myocardial 6-keto-PGF1α: attenuated
[2]; aspirin 50 mg/kg
  effect on pioglitazone+atorvastatin increase of myocardial 6-keto-PGF1α: attenuated
Lipoxin A4; LPS + aspirin 10 mg/kg
  effect on LPS effect on myocardial lipoxin A4: did not alter
Lipoxin A4; LPS + aspirin 50 mg/kg
  effect on LPS effect on myocardial lipoxin A4: did not alter
Lipoxin A4; LPS + aspirin 200 mg/kg, p<0.001 versus each of the other groups
  effect on LPS effect on myocardial lipoxin A4: augmented
Lipoxin A4; aspirin alone, 10 mg/kg
  effect on myocardial lipoxin A4: did not affect
Lipoxin A4; aspirin alone, 50 mg/kg
  effect on myocardial lipoxin A4: did not affect
Lipoxin A4; aspirin alone
  effect on pioglitazone+atorvastatin effect on myocardial lipoxin A4: not attenuated
PGE2; LPS + aspirin 10 mg/kg, p<0.001 versus LPS alone
  myocardial PGE2 levels: 48.70 ± 3.02 pg/mg
PGE2; LPS + aspirin 50 mg/kg, p<0.001 versus LPS alone
  myocardial PGE2 levels: 41.68 ± 0.24 pg/mg
PGE2; LPS + aspirin 200 mg/kg, p<0.001 versus LPS alone
  myocardial PGE2 levels: 33.72 ± 0.46 pg/mg
PGE2; aspirin alone 10 mg/kg, not significant versus control
  myocardial PGE2 levels: 34.48 ± 0.21 pg/mg
PGE2; aspirin alone 50 mg/kg, not significant versus control
  myocardial PGE2 levels: 33.68 ± 0.24 pg/mg
PGE2; aspirin 10 mg/kg
  effect on pioglitazone+atorvastatin increase of myocardial PGE2: attenuated
PGE2; aspirin 50 mg/kg
  effect on pioglitazone+atorvastatin increase of myocardial PGE2: completely blocked

## CC(C)c1c(C(=O)Nc2ccccc2)c(-c2ccccc2)c(-c2ccc(F)cc2)n1CC[C@@H](O)C[C@@H](O)CC(=O)O [atorvastatin]
15-epi-LPXA4 [5]; 3 days oral 5 and 10 mg/kg/d, but not 2 mg/kg/d, each drug alone
  effect on myocardial 15-epi-LPXA4 levels: increased

## Cc1onc(-c2ccccc2)c1-c1ccc(S(N)(=O)=O)cc1 [valdecoxib]
15-epi-LPXA4 [5]
  effect on pioglitazone+atorvastatin effect on myocardial 15-epi-LPXA4 levels: blocked

## CC(c1cc2ccccc2s1)N(O)C(N)=O (stereo not shown) [zileuton]
15-epi-LPXA4 [5]
  effect on pioglitazone+atorvastatin effect on myocardial 15-epi-LPXA4 levels: blocked

## lipopolysaccharide [LPS]
COX2 [6]
  total COX2 immunoblot signal intensity: stronger
15-epi-LPXA4 [1]; LPS 10 mg/kg i.v. alone
  effect on myocardial 15-epi-LPXA4 levels: increased
[2]; LPS alone, p<0.001 versus control, mean ±SEM
  myocardial 6-keto-PGF1α levels: 80.56 ± 0.21 pg/mg
Lipoxin A4; LPS alone
  effect on myocardial lipoxin A4 levels: small increase
PGE2; LPS alone, p<0.001 versus control
  myocardial PGE2 levels: 70.31±0.26
